According to ChEMBL document CHEMBL3044911, “Effect of distribution and concentration of topically applied neonicotinoid insecticides in buffalograss, Buchloe dactyloides, leaf tissues on the differential mortality of Blissus occiduus under field conditions” (Pest Manag Sci, 2013):
Calls of active or inactive are those of the source. The rule behind the calls is not given here.

How the values were obtained:
Lygaeidae [1] = test: Insecticidal activity against second generation Blissus occiduus in buffalograss under field condition assessed as reduction in number at 9.6 kg/ha measured 7 days after treatment; format: functional, organism-based
Lygaeidae [2] = test: Insecticidal activity against first generation Blissus occiduus in buffalograss under field condition assessed as reduction in number at 9.6 kg/ha measured 3 days after treatment; format: functional, organism-based
Lygaeidae [3] = test: Insecticidal activity against first generation Blissus occiduus in buffalograss under field condition assessed as reduction in number at 9.6 kg/ha measured 8 days after treatment; format: functional, organism-based
Lygaeidae [4] = test: Insecticidal activity against second generation Blissus occiduus in buffalograss under field condition assessed as reduction in number at 9.6 kg/ha measured 3 days after treatment; format: functional, organism-based
Lygaeidae [5] = test: Insecticidal activity against second generation Blissus occiduus in buffalograss under field condition assessed as reduction in number at 9.6 kg/ha measured 55 days after treatment; format: functional, organism-based
Lygaeidae [6] = test: Insecticidal activity against first generation Blissus occiduus in buffalograss under field condition assessed as reduction in number at 9.6 kg/ha measured 106 days after treatment; format: functional, organism-based
Lygaeidae [7] = test: Insecticidal activity against second generation Blissus occiduus in buffalograss under field condition assessed as reduction in number at 9.6 kg/ha measured 28 days after treatment; format: functional, organism-based
Lygaeidae [8] = test: Insecticidal activity against second generation Blissus occiduus in buffalograss under field condition assessed as reduction in number at 89.7 kg/ha measured 3 days after treatment; format: functional, organism-based
Lygaeidae [9] = test: Insecticidal activity against second generation Blissus occiduus in buffalograss under field condition assessed as reduction in number at 89.7 kg/ha measured 55 days after treatment; format: functional, organism-based
Lygaeidae [10] = test: Insecticidal activity against second generation Blissus occiduus in buffalograss under field condition assessed as reduction in number at 89.7 kg/ha measured 28 days after treatment; format: functional, organism-based
Urochloa mutica [11] = test: Drug level in […] (buffalo grass) measured per gram of fresh weight at 19.1 kg/ha measured 28 days after treatment; format: ADME, organism-based; details: in vivo, 672 h
Lygaeidae [12] = test: Insecticidal activity against first generation Blissus occiduus in buffalograss under field condition assessed as reduction in number at 89.7 kg/ha measured 106 days after treatment; format: functional, organism-based
Urochloa mutica [13] = test: Drug level in […] (buffalo grass) measured per gram of fresh weight at 19.1 kg/ha measured 3 days after treatment; format: ADME, organism-based; details: in vivo, 72 h
Lygaeidae [14] = test: Insecticidal activity against second generation Blissus occiduus in buffalograss under field condition assessed as reduction in number at 89.7 kg/ha measured 7 days after treatment; format: functional, organism-based
Urochloa mutica [15] = test: Drug level in […] (buffalo grass) measured per gram of fresh weight at 19.1 kg/ha measured 7 days after treatment; format: ADME, organism-based; details: in vivo, 168 h
Urochloa mutica [16] = test: Drug level in […] (buffalo grass) measured per gram of fresh weight at 19.1 kg/ha measured 14 days after treatment; format: ADME, organism-based; details: in vivo, 336 h
Lygaeidae [17] = test: Insecticidal activity against first generation Blissus occiduus in buffalograss under field condition assessed as reduction in number at 89.7 kg/ha measured 3 days after treatment; format: functional, organism-based
Lygaeidae [18] = test: Insecticidal activity against first generation Blissus occiduus in buffalograss under field condition assessed as reduction in number at 89.7 kg/ha measured 8 days after treatment; format: functional, organism-based
Urochloa mutica [19] = test: Drug level in […] (buffalo grass) measured per gram of fresh weight at 89.7 kg/ha measured 3 days after treatment; format: ADME, organism-based; details: in vivo, 72 h
Urochloa mutica [20] = test: Drug level in […] (buffalo grass) measured per gram of fresh weight at 89.7 kg/ha measured 28 days after treatment; format: ADME, organism-based; details: in vivo, 672 h
Urochloa mutica [21] = test: Drug level in […] (buffalo grass) measured per gram of fresh weight at 89.7 kg/ha measured 7 days after treatment; format: ADME, organism-based; details: in vivo, 168 h
Urochloa mutica [22] = test: Drug level in […] (buffalo grass) measured per gram of fresh weight at 89.7 kg/ha measured 14 days after treatment; format: ADME, organism-based; details: in vivo, 336 h
Lygaeidae [23] = test: Insecticidal activity against second generation Blissus occiduus in buffalograss under field condition assessed as reduction in number at 19.1 kg/ha measured 28 days after treatment; format: functional, organism-based
Lygaeidae [24] = test: Insecticidal activity against first generation Blissus occiduus in buffalograss under field condition assessed as reduction in number at 19.1 kg/ha measured 3 days after treatment; format: functional, organism-based
Urochloa mutica [25] = test: Drug level in […] (buffalo grass) measured per gram of fresh weight at 9.6 kg/ha measured 7 days after treatment; format: ADME, organism-based; details: in vivo, other, 168 h
Lygaeidae [26] = test: Insecticidal activity against second generation Blissus occiduus in buffalograss under field condition assessed as reduction in number at 19.1 kg/ha measured 7 days after treatment; format: functional, organism-based
Lygaeidae [27] = test: Insecticidal activity against first generation Blissus occiduus in buffalograss under field condition assessed as reduction in number at 19.1 kg/ha measured 106 days after treatment; format: functional, organism-based
Lygaeidae [28] = test: Insecticidal activity against first generation Blissus occiduus in buffalograss under field condition assessed as reduction in number at 19.1 kg/ha measured 8 days after treatment; format: functional, organism-based
Urochloa mutica [29] = test: Drug level in […] (buffalo grass) measured per gram of fresh weight at 9.6 kg/ha measured 3 days after treatment; format: ADME, organism-based; details: in vivo, 72 h
Lygaeidae [30] = test: Insecticidal activity against second generation Blissus occiduus in buffalograss under field condition assessed as reduction in number at 19.1 kg/ha measured 3 days after treatment; format: functional, organism-based
Lygaeidae [31] = test: Insecticidal activity against second generation Blissus occiduus in buffalograss under field condition assessed as reduction in number at 19.1 kg/ha measured 55 days after treatment; format: functional, organism-based
Urochloa mutica [32] = test: Drug level in […] (buffalo grass) measured per gram of fresh weight at 9.6 kg/ha measured 14 days after treatment; format: ADME, organism-based; details: in vivo, 336 h

## O=[N+]([O-])/N=C1\NCCN1Cc1ccc(Cl)nc1
Lygaeidae [1]
  Activity: Active
Lygaeidae [2]
  Activity: Active
Lygaeidae [3]
  Activity: Active
Lygaeidae [4]
  Activity: inactive
Lygaeidae [5]
  Activity: Active
Lygaeidae [6]
  Activity: inactive
Lygaeidae [7]
  Activity: inactive

## CN/C(=N\[N+](=O)[O-])NCc1cnc(Cl)s1 [CLOTHIANIDINE]
Lygaeidae [8]
  Activity: Active
Lygaeidae [9]
  Activity: Active
Lygaeidae [10]
  Activity: Active
Urochloa mutica [11]
  drug content: 0.19 µg/g
Lygaeidae [12]
  Activity: Active
Urochloa mutica [13]
  drug content: 6.48 µg/g
Lygaeidae [14]
  Activity: Active
Urochloa mutica [15]
  Drug uptake: 1.56 µg/g
Urochloa mutica [16]
  drug content: 0.66 µg/g
Lygaeidae [17]
  Activity: Active
Lygaeidae [18]
  Activity: Active

## O=[N+]([O-])NC1=NCCN1Cc1ccc(Cl)nc1 [IMIDACLOPRID]
Urochloa mutica [19]
  drug content: 14.2 µg/g
Urochloa mutica [20]
  drug content: 0.2 µg/g
Urochloa mutica [21]
  drug content: 3.25 µg/g
Urochloa mutica [22]
  drug content: 0.77 µg/g

## CN1COCN(Cc2cnc(Cl)s2)/C1=N\[N+](=O)[O-] [THIAMETHOXAM]
Lygaeidae [23]
  Activity: Active
Lygaeidae [24]
  Activity: Active
Urochloa mutica [25]
  drug content: 0.6 µg/g
Lygaeidae [26]
  Activity: Active
Lygaeidae [27]
  Activity: inactive
Lygaeidae [28]
  Activity: Active
Urochloa mutica [29]
  drug content: 6.2 µg/g
Lygaeidae [30]
  Activity: inactive
Lygaeidae [31]
  Activity: Active
Urochloa mutica [32]
  drug content: 0.16 µg/g
